In assay [1] the target is T1, TNKS2 (Homo sapiens, UniProt Q9H2K2).
T1 construct: GST-tagged Tnks-2 (873-1166 aa, prepared in-house); made in house
Briefly: TNKS2 activity ELISA (autoparsylation assay). It counts as biochemical. As to conditions: GST-tagged Tnks-2 (873-1166 aa); read-out: IC50 [M] TNKS2 ELISA. As for the experimental part: (§1) Description of the TNKS1 and TNKS2 ELISA Assay
(§2) Biochemical Activity Testing of TNKS 1 and 2: Activity ELISA (Autoparsylation Assay)
(§3) For analysis of autoparsylation activity of TNKS 1 and 2 an activity ELISA iss performed: In the first step GST tagged TNKS is captured on a Glutathione coated plate. Then the activity assay with biotinylated NAD is performed in the absence/presence of the compounds. During the enzymatic reaction GST tagged TNKS transfers biotinylated ADP-ribose to itself from biotinylated NAD as co-substrate. For the detection streptavidin-HRP conjugate is added that binds to the biotinylated TNKS and is thereby captured to the plates. The amount of biotinylated resp. autoparsylated TNKS is detected with a luminescence substrate for HRP. The level of the luminescence signal correlats directly with the amount of autoparsylated TNKS and therefore with activity of TNKS.
(§4) The activity ELISA is performed in 384 well Glutathione coated microtiter plates (Express capture Glutathione coated plate, Biocat, Heidelberg, Germany). The plates are pre-equilibrated with PBS. […] The plates are washed 3 times with PBS-Tween-20. The wells are blocked by incubation at room temperature for 20 minutes with 50 μl blocking buffer (PBS, 0.05% Tween-20, 0.5% BSA). Afterwards the plates are washed 3 times with PBS-Tween-20. […] The reaction is stopped by 3 times washing with PBS-Tween-20. For the detection 50 μl of 20 ng/μl Streptavidin, HRP conjugate (MoBiTec, Göttingen, Germany) in PBS/0.05% Tween-20/0.01% BSA are added and the plates are incubated for 30 minutes at room temperature. After three times washing with PBS-Tween-20 50 μl of SuperSignal ELISA Femto Maximum sensitivity substrate solution (ThermoFisherScientific (Pierce), Bonn, Germany) are added. Following a 1 minute incubation at room temperature luminescence signals are measured with an Envision multimode reader (Perkin Elmer LAS Germany GmbH) at 700 nm. The full value used is the inhibitor-free reaction. […] The inhibitory values (IC50) are determined using either the program Symyx Assay Explorer® or Condosseo® from GeneData.

In assay [2] the test system is Tankyrases. As to conditions: read-out: EC50 [M] TNKS cellular assay; DLD1 cells, 24 hours, Axin2 increase.
Method: Measurement of Cellular Inhibition of Tankyrase
Cells of the colon carcinoma cell line DLD1 are plated in 96 well plates with 1.5×10^4 cells per well. Next day, cells are treated with a serial dilution of test compound in seven steps as triplicates with a final DMSO concentration of 0.3%. […] The amount of isolated Axin2 protein is determined in a Luminex^200 machine (Luminex Corporation) according to the manufacturer's instruction by counting 100 events per well. […] As controls cells are treated with solvent alone (neutral control) and with a Tankyrase reference inhibitor IWR-2 (3E−06 M) which refers as control for maximum increase of Axin2. For analysis, the obtained data are normalized against the untreated solvent control and fitted for determination of the EC50 values using the Assay Explorer software (Accelrys).
Assay [3] deals with T2, PARP-1 (Homo sapiens, UniProt P09874).
T2 construct: purchased Enzo Life Sciences GmbH, Lörrach, Germany
T2 sequence (P09874 whole entry): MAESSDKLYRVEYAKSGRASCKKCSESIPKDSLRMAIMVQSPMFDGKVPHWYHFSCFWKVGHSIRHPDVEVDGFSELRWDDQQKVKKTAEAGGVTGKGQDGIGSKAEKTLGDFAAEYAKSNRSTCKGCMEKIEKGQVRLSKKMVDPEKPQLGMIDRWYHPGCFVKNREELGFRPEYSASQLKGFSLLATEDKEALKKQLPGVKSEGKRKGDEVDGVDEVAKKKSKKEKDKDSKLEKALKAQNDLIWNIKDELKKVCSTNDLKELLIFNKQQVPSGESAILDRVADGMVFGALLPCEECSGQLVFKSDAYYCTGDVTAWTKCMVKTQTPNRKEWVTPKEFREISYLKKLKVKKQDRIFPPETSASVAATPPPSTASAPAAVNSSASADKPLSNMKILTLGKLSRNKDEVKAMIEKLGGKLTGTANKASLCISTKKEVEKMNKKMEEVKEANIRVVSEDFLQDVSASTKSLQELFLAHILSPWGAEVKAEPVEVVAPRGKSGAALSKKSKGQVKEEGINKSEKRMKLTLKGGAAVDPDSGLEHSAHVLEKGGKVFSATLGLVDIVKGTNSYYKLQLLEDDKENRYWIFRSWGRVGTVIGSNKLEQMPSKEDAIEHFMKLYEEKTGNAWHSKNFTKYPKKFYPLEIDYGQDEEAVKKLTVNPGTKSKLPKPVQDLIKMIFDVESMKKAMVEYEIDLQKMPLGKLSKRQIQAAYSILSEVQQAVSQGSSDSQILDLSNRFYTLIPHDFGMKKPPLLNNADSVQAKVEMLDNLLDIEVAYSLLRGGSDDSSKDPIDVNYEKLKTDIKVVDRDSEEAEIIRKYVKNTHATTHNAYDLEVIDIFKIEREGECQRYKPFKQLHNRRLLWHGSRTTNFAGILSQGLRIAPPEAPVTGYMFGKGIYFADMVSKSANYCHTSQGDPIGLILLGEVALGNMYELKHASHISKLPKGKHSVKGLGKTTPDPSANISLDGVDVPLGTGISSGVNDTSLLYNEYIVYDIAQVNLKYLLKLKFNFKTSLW
In words: PARP-1 autoparsylation assay (HTRF). It counts as biochemical. The note with it: His-tagged Parp-1, autoparsylation HTRF. An excerpt:
Description of the PARP1 Assay
Biochemical Activity Testing of PARP-1: Autoparsylation Assay
The autoparsylation assay is run in two steps: the enzymatic reaction in which His-tagged Parp-1 transfers biotinylated ADP-ribose/ADP-ribose to itself from biotinylated NAD/NAD as co-substrate and the detection reaction where a time resolved FRET between cryptate labelled anti-His antibody bound to the His tag of the enzyme and Xlent® labelled-streptavidin bound the biotin-parsylation residue is analysed. The autoparsylation activity is detectable directly via the increase in HTRF signal.
The autoparsylation assay is performed as 384-well HTRF® (Cisbio, Codolet, France) assay format in Greiner low volume nb 384-well microtiter plates. […] The ratio of the emission signals is determined. The full value used is the inhibitor-free reaction. The pharmacological zero value used is Olaparib (LClabs, Woburn, US) in a final concentration of 1 μM. The inhibitory values (IC50) are determined using either the program Symyx Assay Explorer® or Condosseo® from GeneData.
Background: In TR-FRET formats the signal depends on donor and acceptor labels being close together.

Assay [4] concerns the target T3, TNKS1 (Homo sapiens, UniProt O95271).
T3 construct: GST-tagged Tnks-1 (1023-1327 aa, prepared in-house); made in house
In words: TNKS1 activity ELISA (autoparsylation assay). It counts as biochemical. The note with it: GST-tagged Tnks-1 (1023-1327 aa). As for the experimental part:
as §1, §2, §3, §4

The values that follow come from patent publication US9809598B2 (Merck Patent GmbH, priority 2014, dated 2017).

The structures appear in SMILES notation. Where a name gives a salt, the structure may show the parent alone.

T3 sequence (O95271 1023-1327): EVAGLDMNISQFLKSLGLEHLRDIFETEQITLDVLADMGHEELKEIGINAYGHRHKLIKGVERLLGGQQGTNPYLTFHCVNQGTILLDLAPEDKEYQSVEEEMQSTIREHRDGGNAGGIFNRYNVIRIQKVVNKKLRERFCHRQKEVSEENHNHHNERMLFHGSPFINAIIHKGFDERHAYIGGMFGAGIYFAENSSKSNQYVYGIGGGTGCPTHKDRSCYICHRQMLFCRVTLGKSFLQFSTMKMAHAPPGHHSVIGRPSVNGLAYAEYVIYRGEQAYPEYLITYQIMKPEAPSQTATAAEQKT
T1 sequence (Q9H2K2 873-1166): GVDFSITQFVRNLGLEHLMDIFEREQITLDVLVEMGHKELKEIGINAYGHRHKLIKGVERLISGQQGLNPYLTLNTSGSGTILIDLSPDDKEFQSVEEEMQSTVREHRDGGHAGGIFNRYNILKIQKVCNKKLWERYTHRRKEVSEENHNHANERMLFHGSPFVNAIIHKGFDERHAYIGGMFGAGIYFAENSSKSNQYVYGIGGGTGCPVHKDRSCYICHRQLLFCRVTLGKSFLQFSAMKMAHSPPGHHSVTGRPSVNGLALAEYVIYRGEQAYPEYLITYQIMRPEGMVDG

The IC50 is the concentration that gives 50% inhibition. As usually defined, the EC50 is the concentration that produces a half-maximal response. For `COc1ccc(C(=O)C2CCN(C(=O)CCCc3nn4c(C)ccc4c(=O)[nH]3)CC2)cc1F` [Compound C147, 2-{4-[4-(3-Fluoro-4-methoxy-benzoyl)-piperidin-1-yl]-4-oxo-butyl}-7-methyl-3H-pyrrolo[2,1-f][1,2,4]triazin-4-one], the half-maximal inhibitory concentration (IC50) is below 1e-10 M in assay [1], 370 nM in assay [3] and below 0.1 nM in assay [4]. In addition, the concentration giving a half-maximal response (EC50) in assay [2] was 8.1e-10 M.

For the compound `CCn1cc(C(=O)C2CCN(C(=O)CCCc3nn4c(C)ccc4c(=O)[nH]3)CC2)cn1` [Compound C222, 2-{4-[4-(1-Ethyl-1H-pyrazole-4-carbonyl)-piperidin-1-yl]-4-oxo-butyl}-7-methyl-3H-pyrrolo[2,1-f][1,2,4]triazin-4-one], the values for the 50% inhibitory concentration (IC50) in assay [1], in assay [3] and in assay [4] were 2.9e-10 M, 1200 nM and 0.24 nM, respectively. Also, the EC50 in assay [2] was found to be 2.6e-09 M.

For the compound `Cc1scc2c(=O)[nH]c(CCCC(=O)N3CCC(Oc4ccc(C#N)cc4)CC3)nc12` [Compound C118, 4-{1-[4-(7-Methyl-4-oxo-3,4-dihydro-thieno[3,4-d]pyrimidin-2-yl)-butyryl]-piperidin-4-yloxy}-benzonitrile], the IC50 came out at 8.9e-08 M in assay [1], 850 nM in assay [3] and 110 nM in assay [4]. The EC50 in assay [2] came to 9.1e-07 M.

For `Cn1ccc2c(=O)[nH]c(CCCC(=O)N3CCC(C(=O)c4ccc(C(C)(F)F)cc4)CC3)nc21` [Compound C249, 2-(4-{4-[4-(1,1-Difluoro-ethyl)-benzoyl]-piperidin-1-yl}-4-oxo-butyl)-7-methyl-3,7-dihydro-pyrrolo[2,3-d]pyrimidin-4-one], the IC50 stood at 1.2e-10 M in assay [1], 1100 nM in assay [3] and 0.42 nM in assay [4]. Moreover, the EC50 in assay [2] is 1.8e-09 M.

As for `CC(C)n1cc(C(=O)C2CCN(C(=O)CCCc3nc4c(c(=O)[nH]3)COCC4)CC2)cn1` [Compound C229, 2-{4-[4-(1-Isopropyl-1H-pyrazole-4-carbonyl)-piperidin-1-yl]-4-oxo-butyl}-3,5,7,8-tetrahydro-pyrano[4,3-d]pyrimidin-4-one], the concentration for half-maximal inhibition (IC50) in assay [1] was found to be 2.3e-09 M; in assay [3], 24000 nM; in assay [4], 23 nM. Further, in assay [2], the EC50 was 1.6e-06 M.

Regarding `Cn1cc(C(=O)C2CCN(C(=O)CCCc3cn4cc(F)cc4c(=O)[nH]3)CC2)cn1` [Compound C78, 7-Fluoro-3-{4-[4-(1-methyl-1H-pyrazole-4-carbonyl)-piperidin-1-yl]-4-oxo-butyl}-2H-pyrrolo[1,2-a]pyrazin-1-one], the half-maximal inhibitory concentration (IC50) in assay [1] came to 1.6e-10 M; in assay [3] it was 1200 nM; in assay [4], 0.24 nM. The concentration for a half-maximal effect (EC50) in assay [2] worked out at 2.9e-09 M.

`COc1ccc(C(=O)C2CCN(C(=O)CCCc3nc4c(C)scc4c(=O)[nH]3)CC2)cc1F` [Compound C113, 2-{4-[4-(3-Fluoro-4-methoxy-benzoyl)-piperidin-1-yl]-4-oxo-butyl}-7-methyl-3H-thieno[3,4-d]pyrimidin-4-one]: the half-maximal inhibitory concentration (IC50) in assay [1] worked out at 2.4e-10 M; in assay [3], 29000 nM; in assay [4], 0.38 nM. Moreover, the 50% effective concentration (EC50) in assay [2] was determined as 2.6e-09 M.

On to `COc1ccc(C(=O)C2CCN(C(=O)CCCc3nn4cccc4c(=O)[nH]3)CC2)cc1C` [Compound C143, 2-{4-[4-(4-Methoxy-3-methyl-benzoyl)-piperidin-1-yl]-4-oxo-butyl}-3H-pyrrolo[2,1-f][1,2,4]triazin-4-one], for which the values for the IC50 in assay [1], in assay [3] and in assay [4] were 1.6e-10 M, 4800 nM and 0.19 nM, respectively. The EC50 in assay [2] came to 1.7e-09 M.

As for `COc1ccc(C(=O)C2CCN(C(=O)CCCc3nc4c(c(=O)[nH]3)COCC4)CC2)cn1` [Compound C193, 2-{4-[4-(6-Methoxy-pyridine-3-carbonyl)-piperidin-1-yl]-4-oxo-butyl}-3,5,7,8-tetrahydro-pyrano[4,3-d]pyrimidin-4-one], the results for the IC50 in assay [1], in assay [3] and in assay [4] were 2.6e-09 M, 8000 nM and 7.4 nM, respectively. In addition, the EC50 in assay [2] was found to be 1e-07 M.

As to `COc1ccc(C(=O)C2CCN(C(=O)CCCc3cn4c(C)ccc4c(=O)[nH]3)CC2)cc1C` [Compound C3, 3-{4-[4-(4-Methoxy-3-methyl-benzoyl)-piperidin-1-yl]-4-oxo-butyl}-6-methyl-2H-pyrrolo[1,2-a]pyrazin-1-one], the IC50 was found to be 1.7e-10 M in assay [1], 820 nM in assay [3] and 0.14 nM in assay [4]. Further, the half-maximal effective concentration (EC50) in assay [2] amounted to 2.9e-10 M.

As to `COc1ccc(C(=O)C2CCN(C(=O)CCCc3cn4c(C)ncc4c(=O)[nH]3)CC2)cc1` [Compound C33, 6-{4-[4-(4-Methoxy-benzoyl)-piperidin-1-yl]-4-oxo-butyl}-3-methyl-7H-imidazo[1,5-a]pyrazin-8-one], the values for the concentration for half-maximal inhibition (IC50) in assay [1], in assay [3] and in assay [4] were 1.2e-10 M, 5500 nM and 0.16 nM, respectively. Also, the half-maximal effective concentration (EC50) in assay [2] came to 1.5e-09 M.

For `COc1ccc(C(=O)C2CCN(C(=O)CCCc3cn4c(C)ncc4c(=O)[nH]3)CC2)cn1` [Compound C99, 6-{4-[4-(6-Methoxy-pyridine-3-carbonyl)-piperidin-1-yl]-4-oxo-butyl}-3-methyl-7H-imidazo[1,5-a]pyrazin-8-one], the IC50 in assay [1] amounted to 1.1e-08 M; in assay [3], 6700 nM; in assay [4], 0.37 nM. Also, in assay [2], the EC50 was 1.1e-08 M.

`CCn1cc(C(=O)C2CCN(C(=O)CCCc3nc4c(C)csc4c(=O)[nH]3)CC2)cn1` [Compound C224, 2-{4-[4-(1-Ethyl-1H-pyrazole-4-carbonyl)-piperidin-1-yl]-4-oxo-butyl}-7-methyl-3H-thieno[3,2-d]pyrimidin-4-one trifluoroacetate]: the IC50 in assay [1] is 7.1e-10 M; in assay [3], 3100 nM; in assay [4], 0.87 nM. The EC50 in assay [2] worked out at 1.8e-08 M.

Take `Cc1ccc2c(=O)[nH]c(CCCC(=O)N3CCC(c4cnc(N)c(C#N)c4)CC3)nn12` [Compound C149, 6-Amino-1′-[4-(7-methyl-4-oxo-3,4-dihydro-pyrrolo[2,1-f][1,2,4]triazin-2-yl)-butyryl]-1′,2′,3′,4′,5′,6′-hexahydro-[3,4′]bipyridinyl-5-carbonitrile]: the half-inhibitory concentration (IC50) in assay [1] was 3.8e-10 M; in assay [3], 770 nM; in assay [4], 0.38 nM. Further, the EC50 in assay [2] was 3.1e-09 M.

`N#Cc1cc(C2CCN(C(=O)CCCc3nc4c(c(=O)[nH]3)COCC4)CC2)cnc1N` [Compound C194, 6-Amino-1′-[4-(4-oxo-3,5,7,8-tetrahydro-4H-pyrano[4,3-d]pyrimidin-2-yl)-butyryl]-1′,2′,3′,4′,5′,6′-hexahydro-[3,4′]bipyridinyl-5-carbonitrile]: the values for the IC50 in assay [1], in assay [3] and in assay [4] were 4.5e-09 M, 4900 nM and 15 nM, respectively. The EC50 in assay [2] was determined as 3.1e-06 M.

As to `O=C(CCCc1nn2cccc2c(=O)[nH]1)N1CCC(c2nnc(-c3ccccc3)o2)CC1` [Compound C140, 2-{4-Oxo-4-[4-(5-phenyl-[1,3,4]oxadiazol-2-yl)-piperidin-1-yl]-butyl}-3H-pyrrolo[2,1-f][1,2,4]triazin-4-one], the IC50 is 1e-08 M in assay [1], 3600 nM in assay [3] and 18 nM in assay [4]. In assay [2], the EC50 was found to be 1e-07 M.

For `CCn1cc(C(=O)C2CCN(C(=O)CCCc3nc4c(C)scc4c(=O)[nH]3)CC2)cn1` [Compound C216, 2-{4-[4-(1-Ethyl-1H-pyrazole-4-carbonyl)-piperidin-1-yl]-4-oxo-butyl}-7-methyl-3H-thieno[3,4-d]pyrimidin-4-one], the IC50 in assay [1] stood at 1.3e-09 M; in assay [3], 1500 nM; in assay [4] it was 2.5 nM. In addition, the concentration for a half-maximal effect (EC50) in assay [2] stood at 5.2e-08 M.
